{"source": "patent US4256462A", "about": "“Method and composition for determination of n-nitrosamines” (University of Iowa Research Foundation, priority 1979, dated 1981)", "experiment": "Denitrosation reaction time, iodo vs bromo salts", "settings": "sodium iodide reagent", "excerpt": "Particularly for the sodium iodide salt, the reaction will occur within one minute, whereas, when bromo salts are substituted, the reaction times are considerably longer, such as five minutes."}
{"smiles": "[I-].[Na+]", "note": "[sodium iodide]", "values": [{"measurement": "reaction time", "value": "one"}]}
